Patent US20120295844A1, “USE OF APROTININ FOR TREATING PARASITIC INFECTIONS AND PROGNOSING BOVINE TRYPANOTOLERANCE” (priority 2010, published 2012)

How the values were obtained:
[1] = tested on: NO production by J774.2 macrophage line cells; assay: NO production inhibition by J774.2 macrophage line (Griess assay); type: cell-based, mouse; details: LPS + IFNγ stimulated J774.2 cells, 15 hours
Method: (§1) Two different vials of the J774.2 line were used at the 8th and 9th passages. The cells from these vials were placed in culture in parallel, and the tests were triplicated. The cells were first stimulated with Lipopolysaccharide (LPS, InvivoGen) at a concentration of 100 ng/ml and with mouse interferon gamma (IDNγ, AbD serotex) at a final concentration of 10 ng/ml and incubated in the absence (control) or in the presence of various concentrations of BPTI (range of 12.5 to 100 μM) for 15 hours at 37° C./5% CO2 in a complete medium containing DMEM glutamax (Gibco) supplemented with 10% foetal calf serum (FCS) and 1% penicillin/streptamycin. The quantity of NO produced was determined by means of a colorimetric assay according to the Griess principle (Pinelli et al., Vet. Parasitol., 2000, 92: 181-189). For each BPTI concentration, NO production inhibition percentage is calculated according to the following formula: […]

[2] = tested on: NO production by RAW 264.7 macrophage line cells; assay: NO production inhibition by RAW 264.7 macrophage line (Griess assay); type: cell-based, mouse; details: LPS + IFNγ stimulated RAW 264.7 cells
Method: as §1
Two different vials of the RAW 264.7 line were used at the 10th and 11th passages. The cells from these vials were placed in culture in parallel, and the tests were triplicated and performed as described above.

[3] = tested on: NO production by bovine macrophages; assay: NO production inhibition by bovine macrophages derived from circulating monocytes; type: cell-based; details: LPS + bovine IFNg
Method: as §1
Bovine monocytes were isolated from circulating monocytes. Two independent tests were performed and each of the tests was triplicated. The monocytes were stimulated with LPS at a concentration of 250 ng/ml and bovine IFNg at a final concentration of 10 ng/ml. The cells were then incubated in the absence ([…]) for 20 hours (test 1) and 24 hours (test 2) at 37° C./5% CO2 in IMDM complete medium containing IMDM supplemented with L-glutamine at […] final, gentamicin at 50 μg/ml final, 10% FCS and 5×10^−5 M b-mercaptoethanol.

[4] = tested on: Trypanosoma congolense IL1180; assay: Viability of Trypanosoma congolense IL1180 cultured in vitro (FACS, microscopy); type: cell-based; details: for mortality induced by BPTI (natural mortality subtracted): 48 hours
Method: Before adding BPTI and for measurement times: 1.5 hours, 17 hours and 24 hours, the parasites (Trypanosoma congolense IL1180) are clearly visible; their form is as expected (fusiform), and they are mobile. However, the mortality becomes increasingly visible over time. The impact of BPTI on morphology is perceptible 17 hours (and thereafter) after adding BPTI to the culture. […] In order to analyze the effect of BPTI on parasite viability, flow cytometry measurements were made at different times (1.5 hours, 17 hours, 24 hours and 48 hours after adding 100 μM or 200 μM of BPTI for parasite concentrations of 5×10^6 parasites/ml and 10×10^6 parasites/ml). The results obtained are represented in graphs A and B in FIG. 7. There is a “natural” mortality of Trypanosoma congolense in vitro, due to the difficulty maintaining sanguicolous forms of Trypanosoma congolense in liquid culture. This mortality increases over time and reaches values of 49.1% and 47.1% under conditions using 5.10^6 parasites/ml and 10.10^6 parasites/ml, respectively. However, a trypanocidal action of BPTI may be observed on trypanosome cultures, a slight dose-dependent effect of BPTI on parasite viability may be recorded. The effect of BPTI is extremely significant and appears to be also time-dependent. […] The mortality induced by BPTI on a population of 5×10^6 trypanosomes (10×10^6 parasites/ml) under the same conditions is 49.6% and 48.8%, respectively (see graphs A and B in FIG. 8).

[5] = tested on: Leishmania donovani infantum (Ldi); assay: Viability and growth of Leishmania donovani infantum (Ldi) cultured in vitro (FACS); type: cell-based; details: BPTI 50, 100, 200 μM
Method: The growth and viability of Leismania donovani infantum parasites were measured by FACS at 4, 12, 24, 48, 72, 144 and 168 hours of culture after addition of BPTI at concentrations of 50, 100 and 200 μM. The results are presented in graphs A and B in FIG. 10.
The effect of BPTI was tested for each time value with a non-parametric test (Kruskal-Wallis test).

[6] = tested on: "trypsin-like" (serine protease) in Trypanosoma congolense (Tc. IL1180) lysates; assay: BAPNA degradation by Trypanosoma congolense (Tc. IL1180) lysates; type: biochemical; details: BPTI 3.125 mg/ml or 481.25 μM or 625 μg/well, BAPNA 0.315 mM
Method: (§2) The parasites were placed in rodent culture and purified on a DEAE cellulose column. The parasites were then counted, and lysed by means of 4 successive 1-minute passages in liquid nitrogen and in a water-bath at 37° C. The tests were conducted on three independent procedures in triplicate using […]. The method used for detecting “trypsin-like” (serine protease) consists of measuring, as a function of time, the initial degradation rate of a homogeneous substrate, N-benzoyl-ariginine-p-nitroaniline (BAPNA), under the effect of “trypsin-like” found in lysates in the presence of absence of BPTI. The appearance of the degradation product, p-nitroalinine (p-Na), which is yellow in colour, is measured by means of spectrophotometry at 405 nm. The enzyme activity calculation is performed according to the Beer-Lambert law.

[7] = tested on: "trypsin-like" (serine protease) in Leishmania donovani infantum (Ldi) lysates; assay: BAPNA degradation by Leishmania donovani infantum (Ldi) lysates; type: biochemical; details: BPTI 625 μg; lysate alone 2.893
Method: as §2
(§3) Leishmania (Ldi and Ldd8) were placed in culture in RMPI supplemented with 10% FCS, 1% penicillin/streptomycin and 1% Ultraglutamine and placed in an incubator) 37° C./5% CO2 for one week. The leishmania are counted and lysed according to the protocol defined for trypanosome lysis. The method for detecting and the method for calculating the enzyme activity were identical to those used for trypanosomes. The tests using Ldi and Ldd8 were conducted on three independent procedures in triplicate using […].

[8] = tested on: "trypsin-like" (serine protease) in Leishmania donovani donovani (Ldd8) lysates; assay: BAPNA degradation by Leishmania donovani donovani (Ldd8) lysates; type: biochemical; details: BPTI 625 μg; lysate alone 1.767
Method: as §2, §3

## aprotinin [BPTI]
[1]; BPTI 12.5 μM
  NO production inhibition: 1.7%
[1]; BPTI 25 μM
  NO production inhibition: 16.2%
[1]; BPTI 50 μM
  NO production inhibition: 30.1%
[1]; BPTI 100 μM
  NO production inhibition: 59.5%
[2]; BPTI 12.5 μM
  NO production inhibition: NO inhibition was observed
[2]; BPTI 25 μM
  NO production inhibition: 0.2%
[2]; BPTI 50 μM
  NO production inhibition: 16.1%
[2]; BPTI 100 μM
  NO production inhibition: 47.6%
[3]; Test 1, 20 hours, BPTI 12.5 μM
  mean inhibition of NO production: 8.4%
[3]; Test 1, 20 hours, BPTI 25 μM
  mean inhibition of NO production: 14.2%
[3]; Test 1, 20 hours, BPTI 50 μM
  mean inhibition of NO production: 32.6%
[3]; Test 1, 20 hours, BPTI 100 μM
  mean inhibition of NO production: 70.5%
[3]; Test 2, 24 hours, BPTI 6.25 μM
  mean inhibition of NO production: 12%
[3]; Test 2, 24 hours, BPTI 12.5 μM
  mean inhibition of NO production: 25.9%
[3]; Test 2, 24 hours, BPTI 25 μM
  mean inhibition of NO production: 62.5%
[3]; Test 2, 24 hours, BPTI 50 μM
  mean inhibition of NO production: 70%
[3]; Test 2, 24 hours, BPTI 100 μM
  mean inhibition of NO production: 60.2%
[4]; 17 hours and thereafter after adding BPTI to the culture
  effect on parasite morphology (microscopic observation): Spherical forms are observed
[4]; BPTI 100 μM, 2.5×10^6 trypanosomes (5×10^6 parasites/ml)
  mortality induced by BPTI (natural mortality subtracted): 46%
[4]; BPTI 100 μM, 5×10^6 trypanosomes (10×10^6 parasites/ml)
  mortality induced by BPTI (natural mortality subtracted): 49.6%
[4]; BPTI 200 μM, 2.5×10^6 trypanosomes (5×10^6 parasites/ml)
  mortality induced by BPTI (natural mortality subtracted): 47.4%
[4]; BPTI 200 μM, 5×10^6 trypanosomes (10×10^6 parasites/ml)
  mortality induced by BPTI (natural mortality subtracted): 48.8%
[4]; summary statement referring to Example 2
  increase of in vitro parasite mortality: 50%
[5]; 72 hours, P-value=0.05
  effect on the viability of leishmania (Kruskal-Wallis test): at the limit of significance
[5]; 144 hours, P-value=0.05
  effect on the viability of leishmania (Kruskal-Wallis test): significant effect
[5]; 168 hours only, P-value=0.03
  effect on the number of leishmania (growth, Kruskal-Wallis test): significant effect
[5]; 168 hours, P-value=0.03
  effect on the viability of leishmania (Kruskal-Wallis test): significant effect
[5]; other observation times (4, 12, 24, 48 hours)
  effect on the viability of leishmania (Kruskal-Wallis test): not significant
[6]
  mean inhibition of lysate enzyme activity: 44.6%
[6]; lysate alone 1.893
  lysate enzyme activity in the presence of BPTI: 1.048 (Standard deviation 0.073)
[7]
  lysate enzyme activity with BPTI: 1.555
[8]
  lysate enzyme activity with BPTI: 1.0893
